Data published in US11491120B2, “Pharmacological prophylactics against stress-induced affective disorders in females” (The Trustees of Columbia University in the City of New York, priority 2017, dated 2022).
“Also recorded” adds a separate entry of the source.

Columns and labels:
female 129S6/SvEv mice [1] = experiment: Contextual fear conditioning (CFC), 3-shock, freezing in training and context re-exposure; conditions: for Freezing during 3-shock CFC training vs saline: 1 week before CFC
female 129S6/SvEv mice [2] = experiment: Forced swim test (FST), immobility time, after stress; conditions: 1 week prophylactic drug
[3] = Contextual Fear Conditioning Re-exposure, Dunnett test Sal vs. drug (0.025), 1 week prophylactic drug
[4] = Contextual Fear Conditioning Re-exposure, Dunnett test Sal vs. drug (0.075), 1 week prophylactic drug
[5] = Contextual Fear Conditioning Re-exposure, Dunnett test Sal vs. drug (0.1), 1 week prophylactic drug
[6] = Contextual Fear Conditioning Re-exposure, Dunnett test Sal vs. drug (0.3), 1 week prophylactic drug
[7] = Contextual Fear Conditioning Re-exposure, Dunnett test Sal vs. drug (2.5), 1 week prophylactic drug
[8] = Contextual Fear Conditioning Re-exposure, Dunnett test Sal vs. drug (10), 1 week prophylactic drug
[9] = Contextual Fear Conditioning Training, Dunnett test Sal vs. drug (0.025), 1 week prophylactic drug
[10] = Contextual Fear Conditioning Training, Dunnett test Sal vs. drug (0.075), 1 week prophylactic drug
[11] = Contextual Fear Conditioning Training, Dunnett test Sal vs. drug (0.1), 1 week prophylactic drug
[12] = Contextual Fear Conditioning Training, Dunnett test Sal vs. drug (0.3), 1 week prophylactic drug
[13] = Contextual Fear Conditioning Training, Dunnett test Sal vs. drug (2.5), 1 week prophylactic drug
[14] = Contextual Fear Conditioning Training, Dunnett test Sal vs. drug (10), 1 week prophylactic drug

N[C@]1(c2ccccc2Cl)CCC[C@H](O)C1=O [(2S,6S)-HNK]
p, Sal vs. drug, Dunnett test: Freezing (Average), Contextual Fear Conditioning Re-exposure (female 129S6/SvEv mice [1]; 0.025 mg/kg, 1 week prophylactic drug): 0.9898
p, Sal vs. drug, Dunnett test: Freezing (Average), Contextual Fear Conditioning Re-exposure (female 129S6/SvEv mice [1]; 0.075 mg/kg, 1 week prophylactic drug): 0.4829
Freezing during 3-shock CFC training vs saline (female 129S6/SvEv mice [1]; 0.1 mg/kg, female mice): froze significantly less
p, Sal vs. drug, Dunnett test: Freezing (Average), Contextual Fear Conditioning Re-exposure (female 129S6/SvEv mice [1]; 0.1 mg/kg, 1 week prophylactic drug): 0.9999
Freezing during 3-shock CFC training vs saline (female 129S6/SvEv mice [1]; 0.3 mg/kg, female mice): froze significantly more
p, Sal vs. drug, Dunnett test: Freezing (Average), Contextual Fear Conditioning Re-exposure (female 129S6/SvEv mice [1]; 0.3 mg/kg, 1 week prophylactic drug): 0.1973
p, Sal vs. drug, Dunnett test: Freezing (Average), Contextual Fear Conditioning Re-exposure (female 129S6/SvEv mice [1]; 2.5 mg/kg, 1 week prophylactic drug): 0.9996
p, Sal vs. drug, Dunnett test: Freezing (Average), Contextual Fear Conditioning Re-exposure (female 129S6/SvEv mice [1]; 10 mg/kg, 1 week prophylactic drug): 0.9896
p, Freezing (min 1-5) (female 129S6/SvEv mice [1]; [3]): 0.9898
p, Freezing (min 2) (female 129S6/SvEv mice [1]; [3]): >0.9999
p, Freezing (min 3) (female 129S6/SvEv mice [1]; [3]): 0.7775
p, Freezing (min 4) (female 129S6/SvEv mice [1]; [3]): 0.9990
p, Freezing (min 5) (female 129S6/SvEv mice [1]; [3]): 0.9996
p, Freezing (min 1-5) (female 129S6/SvEv mice [1]; [4]): 0.4829
p, Freezing (min 2) (female 129S6/SvEv mice [1]; [4]): 0.9135
p, Freezing (min 3) (female 129S6/SvEv mice [1]; [4]): 0.3091
p, Freezing (min 4) (female 129S6/SvEv mice [1]; [4]): 0.5808
p, Freezing (min 5) (female 129S6/SvEv mice [1]; [4]): 0.2703
p, Freezing (min 1-5) (female 129S6/SvEv mice [1]; [5]): 0.9999
p, Freezing (min 2) (female 129S6/SvEv mice [1]; [5]): 0.9997
p, Freezing (min 3) (female 129S6/SvEv mice [1]; [5]): 0.9998
p, Freezing (min 4) (female 129S6/SvEv mice [1]; [5]): 0.9889
p, Freezing (min 5) (female 129S6/SvEv mice [1]; [5]): >0.9999
p, Freezing (min 1-5) (female 129S6/SvEv mice [1]; [6]): 0.1973
p, Freezing (min 2) (female 129S6/SvEv mice [1]; [6]): 0.2064
p, Freezing (min 3) (female 129S6/SvEv mice [1]; [6]): 0.2280
p, Freezing (min 4) (female 129S6/SvEv mice [1]; [6]): 0.8082
p, Freezing (min 5) (female 129S6/SvEv mice [1]; [6]): 0.3262
p, Freezing (min 1-5) (female 129S6/SvEv mice [1]; [7]): 0.9996
p, Freezing (min 2) (female 129S6/SvEv mice [1]; [7]): 0.9991
p, Freezing (min 3) (female 129S6/SvEv mice [1]; [7]): 0.9908
p, Freezing (min 4) (female 129S6/SvEv mice [1]; [7]): 0.9997
p, Freezing (min 5) (female 129S6/SvEv mice [1]; [7]): >0.9999
p, Freezing (min 1-5) (female 129S6/SvEv mice [1]; [8]): 0.9896
p, Freezing (min 2) (female 129S6/SvEv mice [1]; [8]): 0.5764
p, Freezing (min 3) (female 129S6/SvEv mice [1]; [8]): 0.9993
p, Freezing (min 4) (female 129S6/SvEv mice [1]; [8]): 0.9991
p, Freezing (min 5) (female 129S6/SvEv mice [1]; [8]): >0.9999
p, Freezing (min 1-5) (female 129S6/SvEv mice [1]; [9]): 0.9955
p, Freezing (min 4) (female 129S6/SvEv mice [1]; [9]): 0.7894
p, Freezing (min 5) (female 129S6/SvEv mice [1]; [9]): >0.9999
p, Freezing (min 1-5) (female 129S6/SvEv mice [1]; [10]): 0.9996
p, Freezing (min 4) (female 129S6/SvEv mice [1]; [10]): 0.9991
p, Freezing (min 5) (female 129S6/SvEv mice [1]; [10]): >0.9999
p, Freezing (min 1-5) (female 129S6/SvEv mice [1]; [11]): 0.2466
p, Freezing (min 4) (female 129S6/SvEv mice [1]; [11]): 0.3064
p, Freezing (min 5) (female 129S6/SvEv mice [1]; [11]): 0.5117
* (significance), Freezing (min 1-5) (female 129S6/SvEv mice [1]; [12]): ** (** p<0.01)
p, Freezing (min 1-5) (female 129S6/SvEv mice [1]; [12]): 0.0085
p, Freezing (min 4) (female 129S6/SvEv mice [1]; [12]): 0.0675
p, Freezing (min 5) (female 129S6/SvEv mice [1]; [12]): 0.0731
p, Freezing (min 1-5) (female 129S6/SvEv mice [1]; [13]): 0.6733
p, Freezing (min 4) (female 129S6/SvEv mice [1]; [13]): 0.9438
p, Freezing (min 5) (female 129S6/SvEv mice [1]; [13]): 0.7492
p, Freezing (min 1-5) (female 129S6/SvEv mice [1]; [14]): 0.5049
p, Freezing (min 4) (female 129S6/SvEv mice [1]; [14]): 0.7737
p, Freezing (min 5) (female 129S6/SvEv mice [1]; [14]): 0.5845
Freezing during re-exposure to the CFC training context vs saline (female 129S6/SvEv mice [1]; single i.p. injection 1 week before 3-shock CFC, all doses, female mice): do not significantly alter freezing; also recorded: did not alter overall freezing
Attenuation of learned fear (female 129S6/SvEv mice [1]; single injection 1 week before stressor, female mice): do not attenuate learned fear
p, Sal vs. drug, Dunnett test: Immobility Time (min 1), Forced Swim Test Day 2 (female 129S6/SvEv mice [2]; 0.025 mg/kg): 0.9954
p, Sal vs. drug, Dunnett test: Immobility Time (min 1-6), Forced Swim Test Day 2 (female 129S6/SvEv mice [2]; 0.025 mg/kg): 0.9996
p, Sal vs. drug, Dunnett test: Immobility Time (min 2), Forced Swim Test Day 2 (female 129S6/SvEv mice [2]; 0.025 mg/kg): 0.9993
p, Sal vs. drug, Dunnett test: Immobility Time (min 4), Forced Swim Test Day 2 (female 129S6/SvEv mice [2]; 0.025 mg/kg): 0.9518
p, Sal vs. drug, Dunnett test: Immobility Time (min 5), Forced Swim Test Day 2 (female 129S6/SvEv mice [2]; 0.025 mg/kg): 0.9885
p, Sal vs. drug, Dunnett test: Immobility Time (min 6), Forced Swim Test Day 2 (female 129S6/SvEv mice [2]; 0.025 mg/kg): >0.9999
p, Sal vs. drug, Dunnett test: Immobility Time Average (min 3-6), Forced Swim Test Day 2 (female 129S6/SvEv mice [2]; 0.025 mg/kg): 0.9999
* (significance), Sal vs. drug, Dunnett test: Immobility Time (min 1-6), Forced Swim Test Day 2 (female 129S6/SvEv mice [2]; 0.075 mg/kg): ** (** p<0.01)
* (significance), Sal vs. drug, Dunnett test: Immobility Time (min 5), Forced Swim Test Day 2 (female 129S6/SvEv mice [2]; 0.075 mg/kg): *** (*** p<0.0001)
* (significance), Sal vs. drug, Dunnett test: Immobility Time (min 6), Forced Swim Test Day 2 (female 129S6/SvEv mice [2]; 0.075 mg/kg): ** (** p<0.01)
p, Sal vs. drug, Dunnett test: Immobility Time (min 1), Forced Swim Test Day 2 (female 129S6/SvEv mice [2]; 0.075 mg/kg): 0.9993
p, Sal vs. drug, Dunnett test: Immobility Time (min 1-6), Forced Swim Test Day 2 (female 129S6/SvEv mice [2]; 0.075 mg/kg): 0.0025
p, Sal vs. drug, Dunnett test: Immobility Time (min 2), Forced Swim Test Day 2 (female 129S6/SvEv mice [2]; 0.075 mg/kg): 0.9998
p, Sal vs. drug, Dunnett test: Immobility Time (min 4), Forced Swim Test Day 2 (female 129S6/SvEv mice [2]; 0.075 mg/kg): 0.3169
p, Sal vs. drug, Dunnett test: Immobility Time (min 5), Forced Swim Test Day 2 (female 129S6/SvEv mice [2]; 0.075 mg/kg): <0.0001
p, Sal vs. drug, Dunnett test: Immobility Time (min 6), Forced Swim Test Day 2 (female 129S6/SvEv mice [2]; 0.075 mg/kg): 0.0013
p, Sal vs. drug, Dunnett test: Immobility Time Average (min 3-6), Forced Swim Test Day 2 (female 129S6/SvEv mice [2]; 0.075 mg/kg): 0.9990
* (significance), Sal vs. drug, Dunnett test: Immobility Time (min 1), Forced Swim Test Day 2 (female 129S6/SvEv mice [2]; 0.1 mg/kg): * (* p<0.05)
